Data from patent US12528761B2, “Thyromimetics” (Autobahn Therapeutics, Inc., priority 2020, dated 2026).

Biological target: T1, recombinant human FAAH (rhFAAH) (Homo sapiens, UniProt O00519)
T1 construct: purchased Cayman Chemical (Ann Arbor, MI, USA)
T1 sequence (O00519 1-579): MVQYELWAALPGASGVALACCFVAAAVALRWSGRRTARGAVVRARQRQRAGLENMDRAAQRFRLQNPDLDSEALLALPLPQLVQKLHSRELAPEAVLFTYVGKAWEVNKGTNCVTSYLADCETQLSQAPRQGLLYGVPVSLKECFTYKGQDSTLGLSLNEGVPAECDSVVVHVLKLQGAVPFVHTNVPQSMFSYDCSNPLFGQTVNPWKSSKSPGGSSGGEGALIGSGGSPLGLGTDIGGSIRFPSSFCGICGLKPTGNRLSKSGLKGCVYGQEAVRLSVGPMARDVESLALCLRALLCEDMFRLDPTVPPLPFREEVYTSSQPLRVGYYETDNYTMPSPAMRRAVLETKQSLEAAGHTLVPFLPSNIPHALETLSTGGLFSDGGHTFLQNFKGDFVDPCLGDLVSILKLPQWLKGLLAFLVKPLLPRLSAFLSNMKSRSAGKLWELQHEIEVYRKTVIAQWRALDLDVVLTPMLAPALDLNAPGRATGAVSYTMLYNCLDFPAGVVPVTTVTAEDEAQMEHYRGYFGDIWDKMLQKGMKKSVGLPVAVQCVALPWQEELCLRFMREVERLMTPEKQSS
Assay: FAAH substrate evaluation (formation of acid metabolite, LC-MS/MS)
Assay type: biochemical
Set-up: key: A: ke is equal to or less than 1.0; B: ke is greater than 1.0 and less than or equal to 2.5; C: ke is greater than 2.5; NC: no conversion
Details: 0.5 ng/μL rhFAAH, 1 μM test compound, pH 8.0, room temperature, 0-60 minutes
Description: Purified recombinant human FAAH (rhFAAH) was purchased from Cayman Chemical (Ann Arbor, MI, USA). The total volume for each incubation was 400 μL containing a final 0.5 ng/μL rhFAAH, 1 μM test compound, 1.25% ethanol or 1 μM PF-3845 (FAAH inhibitor), and 0.1% bovine serum albumin in Tris-EDTA buffer at pH 8.0). The positive control was LL-341001. The incubation was conducted at the room temperature. At 0, 5, 15, 30 and 60 minutes, an aliquot of 30 μL reaction mixtures was removed and mixed with 300 μL acetonitrile containing 5 ng/mL terfenadine and 10 ng/mL tolbutamide as internal standards to quench the reaction. The resulting mixture was centrifuged at 4000 rpm, 4° C. for 15 minutes, and 100 μL supernatant was ready for LC-MS/MS analysis to measure the formation of acid metabolite.
Acquity Ultra Performance LC system from Waters was used for sample analysis. The chromatography was performed on a reverse phase Kinetex 2.6 μm C18 column, 2.1×30 mm, 100 Å. The mobile phase A comprised of 0.1% formic acid in water and mobile phase B comprised of 0.1% formic acid in acetonitrile with a 2-min run time at the flow rate of 0.8 mL/min for the acid metabolite from positive control or a 1.5 min run time at the flow rate of 0.9 mL/min for the acid metabolite of test compounds. The mass spectrometer (API-5500 and API Q Trap 4000 Applied Biosystems/MDS SCIEX Instruments, Framingham, MA, USA) was operated under ESI positive or negative ion MRM mode.
The formation of acid metabolite was monitored and quantified using one calibration point of 1 μM. The observed rate constant (ke) for the acid metabolite formation was calculated by plotting the metabolite concentration versus time of incubation with the slope being ke and is shown in Table 4.

ke, observed rate constant for the acid metabolite formation	Compound
A (ke is equal to or less than 1.0)	CC(C)c1cc(Cc2c(Cl)cc(SCC(=O)NCC3CC3)cc2Cl)ccc1O [Compound 181, N-(cyclopropylmethyl)-2-((3,5-dichloro-4-(4-hydroxy-3-isopropylbenzyl)phenyl)thio)acetamide]
A (ke is equal to or less than 1.0)	Cc1cc(CSCC(=O)N2CCC2)cc(Cl)c1Cc1ccc(O)c(C(C)C)c1 [Compound 228, 1-(azetidin-1-yl)-2-((3-chloro-4-(4-hydroxy-3-isopropylbenzyl)-5-methylbenzyl)thio)ethan-1-one]
A (ke is equal to or less than 1.0)	CCNC(=O)CSc1cc(Cl)c(Cc2ccc(O)c(C(C)C)c2)c(Cl)c1F [Compound 189, 2-((3,5-dichloro-2-fluoro-4-(4-hydroxy-3-isopropylbenzyl)phenyl)thio)-N-ethylacetamide]
A (ke is equal to or less than 1.0)	CNC(=O)CCc1cc(Cl)c(Cc2ccc(O)c(C(C)C)c2F)c(Cl)c1 [Compound 41, 3-(3,5-dichloro-4-(2-fluoro-4-hydroxy-3-isopropylbenzyl)phenyl)-N-methylpropanamide]
NC	CC(C)c1cc(Cc2c(Cl)cc(CSCC(=O)N(C)C)cc2Cl)ccc1O [Compound 191, 2-((3,5-dichloro-4-(4-hydroxy-3-isopropylbenzyl)benzyl)thio)-N,N-dimethylacetamide]
NC	C=C(Cc1cc(Cl)c(Cc2ccc(O)c(C(C)C)c2F)c(Cl)c1)C(=O)NC [Compound 177, 2-(3,5-dichloro-4-(2-fluoro-4-hydroxy-3-isopropylbenzyl)benzyl)-N-methylacrylamide]
NC	CNC(=O)/C=C/c1cc(C)c(Cc2ccc(O)c(C(C)C)c2F)c(Cl)c1 [Compound 239, (E)-3-(3-chloro-4-(2-fluoro-4-hydroxy-3-isopropylbenzyl)-5-methylphenyl)-N-methylacrylamide]
NC	CC(C)CNC(=O)CNc1cc(Cl)c(Cc2ccc(O)c(C(C)C)c2F)c(Cl)c1F [Compound 164, 2-((3,5-dichloro-2-fluoro-4-(2-fluoro-4-hydroxy-3-isopropylbenzyl)phenyl)amino)-N-isobutylacetamide]
A (ke is equal to or less than 1.0)	CNC(=O)CCc1cc(Cl)c(Cc2ccc(O)c(C(C)C)c2F)c(Cl)c1F [Compound 72, 3-(3,5-dichloro-2-fluoro-4-(2-fluoro-4-hydroxy-3-isopropylbenzyl)phenyl)-N-methylpropanamide]
A (ke is equal to or less than 1.0)	CNC(=O)CNc1cc(Cl)c(Cc2ccc(O)c(C(C)C)c2F)c(C)c1F [Compound 136, 2-((5-chloro-2-fluoro-4-(2-fluoro-4-hydroxy-3-isopropylbenzyl)-3-methylphenyl)amino)-N-methylacetamide]
NC	CC(C)CNC(=O)CSc1cc(Cl)c(Cc2ccc(O)c(C(C)C)c2)c(Cl)c1 [Compound 185, 2-((3,5-dichloro-4-(4-hydroxy-3-isopropylbenzyl)phenyl)thio)-N-isobutylacetamide]
NC	CC(C)c1c(O)ccc(Cc2c(Cl)cc(CC(=O)N(C)C)cc2Cl)c1F [Compound 34, 2-(3,5-dichloro-4-(2-fluoro-4-hydroxy-3-isopropylbenzyl)phenyl)-N,N-dimethylacetamide]
A (ke is equal to or less than 1.0)	COc1ccc(NC(=O)CSc2cc(Cl)c(Cc3ccc(O)c(C(C)C)c3)c(Cl)c2)nn1 [Compound 169, 2-((3,5-dichloro-4-(4-hydroxy-3-isopropylbenzyl)phenyl)thio)-N-(6-methoxypyridazin-3-yl)acetamide]
NC	CNC(=O)CSc1cc(Cl)c(Cc2ccc(O)c(C(C)C)c2)c(C)c1F [Compound 220, 2-((5-chloro-2-fluoro-4-(4-hydroxy-3-isopropylbenzyl)-3-methylphenyl)thio)-N-methylacetamide]
C (ke is greater than 2.5)	CC(C)c1cc(Cc2c(Cl)cc(SCC(=O)Nc3ccncc3)cc2Cl)ccc1O [Compound 172, 2-((3,5-dichloro-4-(4-hydroxy-3-isopropylbenzyl)phenyl)thio)-N-(pyridin-4-yl)acetamide]
C (ke is greater than 2.5)	CC(C)c1cc(Cc2c(Cl)cc(SCC(=O)Nc3cccnc3)cc2Cl)ccc1O [Compound 170, 2-((3,5-dichloro-4-(4-hydroxy-3-isopropylbenzyl)phenyl)thio)-N-(pyridin-3-yl)acetamide]
A (ke is equal to or less than 1.0)	CNC(=O)CCc1cc(Cl)c(Cc2ccc(O)c(C(C)C)c2)c(Cl)c1F [Compound 66, 3-(3,5-dichloro-2-fluoro-4-(4-hydroxy-3-isopropylbenzyl)phenyl)-N-methylpropanamide]
A (ke is equal to or less than 1.0)	CNC(=O)CNc1cc(Cl)c(Cc2ccc(O)c(C(C)C)c2)c(Cl)c1F [Compound 76, 2-((3,5-dichloro-2-fluoro-4-(4-hydroxy-3-isopropylbenzyl)phenyl)amino)-N-methylacetamide]
C (ke is greater than 2.5)	Cc1cc(CSCC(N)=O)cc(Cl)c1Cc1ccc(O)c(C(C)C)c1 [Compound 232, 2-((3-chloro-4-(4-hydroxy-3-isopropylbenzyl)-5-methylbenzyl)thio)acetamide]
NC	CNC(=O)Cc1cc(Cl)c(Cc2ccc(O)c(C(C)C)c2F)c(Cl)c1 [Compound 33, 2-(3,5-dichloro-4-(2-fluoro-4-hydroxy-3-isopropylbenzyl)phenyl)-N-methylacetamide]

Compound	ke, observed rate constant for the acid metabolite formation
CNC(=O)CSc1cc(Cl)c(Cc2ccc(O)c(C(C)C)c2)c(Cl)c1 [Compound 195, 2-((3,5-dichloro-4-(4-hydroxy-3-isopropylbenzyl)phenyl)thio)-N-methylacetamide]	B (ke is greater than 1.0 and less than or equal to 2.5)
CNC(=O)/C(C)=C/c1cc(C)c(Cc2ccc(O)c(C(C)C)c2F)c(Cl)c1 [Compound 238, (E)-3-(3-chloro-4-(2-fluoro-4-hydroxy-3-isopropylbenzyl)-5-methylphenyl)-N,2-dimethylacrylamide]	B (ke is greater than 1.0 and less than or equal to 2.5)
CNC(=O)CSCc1cc(C)c(Cc2ccc(O)c(C(C)C)c2)c(Cl)c1 [Compound 241, 2-((3-chloro-4-(4-hydroxy-3-isopropylbenzyl)-5-methylbenzyl)thio)-N-methylacetamide]	B (ke is greater than 1.0 and less than or equal to 2.5)
Cc1cc(CSCC(=O)Nc2cccnn2)cc(Cl)c1Cc1ccc(O)c(C(C)C)c1 [Compound 230, 2-((3-chloro-4-(4-hydroxy-3-isopropylbenzyl)-5-methylbenzyl)thio)-N-(pyridazin-3-yl)acetamide]	B (ke is greater than 1.0 and less than or equal to 2.5)
CNC(=O)CSc1cc(Cl)c(Cc2ccc(O)c(C(C)C)c2F)c(Cl)c1 [Compound 188, 2-((3,5-dichloro-4-(2-fluoro-4-hydroxy-3-isopropylbenzyl)phenyl)thio)-N-methylacetamide]	B (ke is greater than 1.0 and less than or equal to 2.5)
CC(C)c1c(O)ccc(Cc2c(Cl)cc(NCC(=O)Nc3cccnc3)c(F)c2Cl)c1F [Compound 160, 2-((3,5-dichloro-2-fluoro-4-(2-fluoro-4-hydroxy-3-isopropylbenzyl)phenyl)amino)-N-(pyridin-3-yl)acetamide]	B (ke is greater than 1.0 and less than or equal to 2.5)
